Source: patent US8377883B2, “Peptide for anti-angiogenesis and use thereof” (Beijing Institute for Cancer Research, priority 2006, dated 2013)

These compounds were tested on mice liver cancer H22 cells (assay: Tumor suppression by FpAT and derivative peptides in liver cancer H22 tumor-bearing mouse model (Example 14)). Settings: peptides 50 μg/100 μl PBS/injection, angulus oculi medialis vein daily, 7 times; CTX 80 mg/KG; tumors weighed.
Type: in vivo, mice of Kunming strain
Procedure: Ninety 5-week old mice of Kunming strain purchased from Animal Center Of Chinese Academy Of Medical Sciences were inoculated subcutaneously in forelimb with mice liver cancer H22 cells (National Institute for the Control of Pharmaceutical and Biological Products) (5×10^6/100 μl/mouse). On the next day after inoculation, each kind of inoculated cells were divided randomly into […] with 10 mice per group. FpAT (50 μg/100 μl PBS/injection) and 7 kinds of derivative peptides thereof (see Table 5 below for detailed sequence):FpAT-N3d, FpAT-N6d, FpAT-N9d, FpAT-C3d, FpAT-C6d, FpAT-C9d, FpAT-N5d-C4d, and vehicle control (PBS:100 μl/injection) were injected in angulus oculi medialis vein, with CTX (cyclophosphamide) (80 mg/KG) as positive control daily, 7 times in total. The mice were sacrificed by dislocating the neck on the next day after administration was stopped, and the tumors were taken and weighed for a statistical analysis.
Work on “H2N-Asp-Ser-Gly-Glu-Gly-Asp-COOH (H-DSGEGD-OH; listed as Homo sapiens) [FpAT-C9d]” yielded a tumor suppressing rate of 34.5%. In the case of “H2N-Asp-Ser-Gly-Glu-Gly-Asp-Phe-Leu-Ala-COOH (H-DSGEGDFLA-OH; listed as Homo sapiens) [FpAT-C6d]”, the tumor suppressing rate is reported as 32.3%. Compound O=P1(N(CCCl)CCCl)NCCCO1 (centres unmarked) [CTX, cyclophosphamide, reference compound] has a tumor suppressing rate of 89.9%. Compound “H2N-Asp-Ser-Gly-Glu-Gly-Asp-Phe-Leu-Ala-Glu-Gly-Gly-COOH (H-DSGEGDFLAEGG-OH; listed as Homo sapiens) [FpAT-C3d]” has a tumor suppressing rate of 46.7%. “H2N-Glu-Gly-Gly-Gly-Val-Arg-COOH (H-EGGGVR-OH; listed as Homo sapiens) [FpAT-N9d]” showed a tumor suppressing rate of 34.5%. For “H2N-Phe-Leu-Ala-Glu-Gly-Gly-Gly-Val-Arg-COOH (H-FLAEGGGVR-OH; listed as Homo sapiens) [FpAT-N6d]”, the tumor suppressing rate was 57.6%. “H2N-Asp-Phe-Leu-Ala-Glu-Gly-COOH (H-DFLAEG-OH; listed as Homo sapiens) [FpAT-N5d-C4d]” gave a tumor suppressing rate of 56.4%. In the case of “H2N-Glu-Gly-Asp-Phe-Leu-Ala-Glu-Gly-Gly-Gly-Val-Arg-COOH (H-EGDFLAEGGGVR-OH; listed as Homo sapiens) [FpAT-N3d]”, the tumor suppressing rate is reported as 63.3%.
